For this assay, the target named is MetAP-2 (Homo sapiens, UniProt P50579). Description: MetAP-2 activity measurement (coupled enzymatic reactions, Met-Arg-Ser substrate, dianisidine detection at 450 nm). Type of assay: biochemical. Conditions: Inhibition of MetAP-2; read-out: IC50 enzyme. In a few lines:
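Rate read from the linear part of the 450 nm absorbance trace. Dianisidine oxidation by peroxidase reports H2O2 made when amino acid oxidase acts on methionine cleaved from MAS tripeptide, one mol dye per mol Met; extinction coefficient gives molar activity.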

A value given as a limit tells only on which side of the number the result lay.

Chain of MetAP-2 (P50579 whole entry, species assumed): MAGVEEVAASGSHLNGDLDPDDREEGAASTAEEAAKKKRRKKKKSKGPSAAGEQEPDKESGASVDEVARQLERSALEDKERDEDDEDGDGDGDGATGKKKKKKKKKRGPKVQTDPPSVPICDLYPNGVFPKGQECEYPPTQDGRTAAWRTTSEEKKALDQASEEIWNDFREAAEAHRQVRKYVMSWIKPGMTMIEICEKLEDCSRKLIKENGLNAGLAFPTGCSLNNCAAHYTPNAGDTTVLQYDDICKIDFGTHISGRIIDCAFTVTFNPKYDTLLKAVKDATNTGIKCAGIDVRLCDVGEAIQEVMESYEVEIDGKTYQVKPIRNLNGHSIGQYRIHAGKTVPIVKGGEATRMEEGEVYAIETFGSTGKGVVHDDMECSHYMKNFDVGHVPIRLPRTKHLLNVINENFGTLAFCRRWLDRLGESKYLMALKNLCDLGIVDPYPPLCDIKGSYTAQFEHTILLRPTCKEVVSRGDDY

On to `O=C1CCc2cc(N3CC[C@](O)(C(=O)NCc4ccc(F)c(F)c4F)C3=O)ccc2N1` [A284, N-(2,3,4-Trifluorobenzyl)-(S)-3-hydroxy-2-oxo-1-(2-oxo-1,2,3,4-tetrahydroquinolin-6-yl)-pyrrolidine-3-carboxamide], for which the 50% inhibitory concentration (IC50) is 10 to 1000 nM. As to `O=C(c1cccc(N2CC[C@@](O)(C(=O)NCc3cc(F)cc(Cl)c3)C2=O)c1)N1CCCCC1` [A104, N-(3-Chloro-5-fluorobenzyl)-(R)-3-hydroxy-2-oxo-1-[3-(piperidin-1-carbonyl)phenyl]pyrrolidine-3-carboxamide], the IC50 was > 10000 nM. `CCC(=O)Nc1ccc(N2CC[C@](O)(C(=O)NCc3cc(F)cc(Cl)c3)C2=O)cn1` [A171, N-(3-Chloro-5-fluorobenzyl)-(S)-3-hydroxy-2-oxo-1-(6-propionylaminopyridin-3-yl)-pyrrolidine-3-carboxamide]: the IC50 lay within 10 to 1000 nM. For `O=C(NCc1cc(F)cc(Cl)c1)[C@@]1(O)CCN(c2ccc3[nH]c(=O)ccc3c2)C1=O` [B40, N-(3-Chloro-5-fluorobenzyl)-(S)-3-hydroxy-2-oxo-1-(2-oxo-1,2-dihydroquinolin-6-yl)pyrrolidine-3-carboxamide] the value was 10 to 1000 nM; for `CN(C)C(=O)c1cc2cc(N3CC[C@](O)(C(=O)NCc4cc(F)cc(Cl)c4)C3=O)ccc2[nH]1` [B95, N,N-Dimethyl-5-[(S)-3-(3-chloro-5-fluorobenzylcarbamoyl)-3-hydroxy-2-oxopyrrolidin-1-yl]-1H-indole-2-carboxamide], 10 to 1000 nM; for `O=C(NC1CCC1)c1cccc(N2CCC(O)(C(=O)NCc3cc(F)cc(Cl)c3)C2=O)c1` (stereo not shown) [A76, N-(3-Chloro-5-fluorobenzyl)-1-(3-cyclobutylcarbamoylphenyl)-3-hydroxy-2-oxopyrrolidine-3-carboxamide], 10 to 1000 nM. Consider `O=C1CCc2cc(N3CC[C@](O)(C(=O)NCCc4cc(F)cc(Cl)c4)C3=O)ccc2N1` [A149, N-[2-(3-Chloro-5-fluorophenyl)-ethyl]-(S)-3-hydroxy-2-oxo-1-(2-oxo-1,2,3,4-tetrahydroquinolin-6-yl)pyrrolidine-3-carboxamide], for which the IC50 lay within 10 to 1000 nM. Under `CC(=O)Nc1ccc(N2CCC(O)(C(=O)NCCc3cc(F)cc(F)c3)C2=O)cn1` (stereo not shown) [A188, N-[2-(3,5-Difluorophenyl)ethyl]-1-(6-acetylaminopyridin-3-yl)-3-hydroxy-2-oxopyrrolidine-3-carboxamide] stands 10 to 1000 nM; under `O=C1N(CC2CCCCC2)CCC[C@]1(O)CNCc1cc(F)cc(Cl)c1` [B63, (S)-3-[(3-Chloro-5-fluorobenzylamino)methyl]-1-cyclohexylmethyl-3-hydroxy-piperidin-2-one], 10 to 1000 nM. Consider `O=C(NCc1cc(F)cc(Cl)c1)C1(O)CCN(C[C@H]2CC[C@H](C(=O)O)CC2)C1=O` (stereo partly shown) [A273, 4-[3-(3-Chloro-5-fluorobenzylcarbamoyl)-3-hydroxy-2-oxopyrrolidin-1-yl-methyl]cyclohexanecarboxylic acid], for which the IC50 lay in the range of 1000 to 10000 nM. Under `O=C1N(Cc2ccccc2)CCC[C@]1(O)CNCc1cc(F)cc(Cl)c1` [B54, (S)-1-Benzyl-3-[(3-chloro-5-fluorobenzylamino)methyl]-3-hydroxypiperidin-2-one] stands 10 to 1000 nM; under `O=C(NCc1cc(F)cc(Cl)c1)C1(O)CCN([C@H]2CCC[C@H](O)[C@@H]2O)C1=O` (stereo partly drawn) [A125, N-(3-Chloro-5-fluorobenzyl)-1-((1S,2R,3S)-2,3-dihydroxy-cyclohexyl)-3-hydroxy-2-oxo-pyrrolidine-3-carboxamide], 1000 to 10000 nM. For the compound `O=C(NCc1cc(F)cc(Cl)c1)[C@]1(O)CCN(c2cc(C(F)(F)F)ccc2F)C1=O` [B42, N-(3-Chloro-5-fluorobenzyl)-(R)-1-(2-Fluoro-5-trifluoromethyl-phenyl)-3-hydroxy-2-oxo-pyrrolidine-3-carboxamide], the IC50 lay within 1000 to 10000 nM.

Turning to `O=C(c1cccc(N2CC[C@@](O)(C(=O)NCc3cc(F)cc(Cl)c3)C2=O)c1)N1CCOCC1` [A74, N-(3-Chloro-5-fluorobenzyl)-(R)-3-hydroxy-1-[3-(morpholine-4-carbonyl)phenyl]-2-oxopyrrolidine-3-carboxamide], the half-inhibitory concentration (IC50) is > 10000 nM. `O=C(NCc1cc(F)cc(Cl)c1)C1(O)CCN(Cc2c[nH]cn2)C1=O` (stereo not shown) [A279, N-(3-Chloro-5-fluorobenzyl)-3-hydroxy-1-(1H-imidazol-4-ylmethyl)-2-oxopyrrolidine-3-carboxamide]: the IC50 fell in the range of 1000 to 10000 nM.

With `CNC(=O)[C@H]1CC[C@H](N2CCC(O)(C(=O)NCc3cc(F)cc(Cl)c3)C2=O)CC1` (stereo partly shown) [A157, N-(3-Chloro-5-fluorobenzyl)-3-hydroxy-1-(4-methylcarbamoyl-cyclohexyl)-2-oxopyrrolidine-3-carboxamide], the IC50 lay in the range of 1000 to 10000 nM. With `CCNC(=O)c1cc2cc(N3CC[C@@](O)(C(=O)NCc4cc(F)cc(Cl)c4)C3=O)ccc2o1` [A195, N-(3-Chloro-5-fluorobenzyl)-(R)-1-(2-ethylcarbamoylbenzofuran-5-yl)-3-hydroxy-2-oxopyrrolidine-3-carboxamide], the IC50 was > 10000 nM. `N#CCn1cc(N2CC[C@](O)(C(=O)NCc3cc(F)cc(Cl)c3)C2=O)cn1` [B116, N-(3-Chloro-5-fluorobenzyl)-(S)-1-(1-cyanomethyl-1H-pyrazol-4-yl)-3-hydroxy-2-oxopyrrolidine-3-carboxamide]: the IC50 was 10 to 1000 nM. For `Cc1cc2cc(N3CC[C@](O)(C(=O)NCc4cc(F)cc(Cl)c4)C3=O)cnc2[nH]1` [B62, N-(3-Chloro-5-fluorobenzyl)-(S)-3-hydroxy-1-(2-methyl-1H-pyrrolo[2,3-b]pyridin-5-yl)-2-oxo-pyrrolidine-3-carboxamide] the value was 10 to 1000 nM; for `CCC(=O)Nc1ccc(N2CCC(O)(C(=O)NCc3cc(F)cc(Cl)c3)C2=O)cn1` (stereo not shown) [A78, N-(3-Chloro-5-fluorobenzyl)-3-hydroxy-2-oxo-1-(6-propionylaminopyridin-3-yl)-pyrrolidine-3-carboxamide], 10 to 1000 nM.

Turning to `CC(=O)Nc1ccc(N2CCC(O)(C(=O)NCCc3cc(F)cc(Cl)c3)C2=O)cn1` (stereo not shown) [A139, N-[2-(3-Chloro-5-fluorophenyl)-ethyl]-1-(6-acetylaminopyridin-3-yl)-3-hydroxy-2-oxopyrrolidine-3-carboxamide], the IC50 was in the range of 10 to 1000 nM. Under `O=C(O)c1cc2cc(N3CC[C@@](O)(C(=O)NCc4cc(F)cc(Cl)c4)C3=O)ccc2[nH]1` [B85, 5-[(R)-3-(3-Chloro-5-fluorobenzylcarbamoyl)-3-hydroxy-2-oxopyrrolidin-1-yl]-1H-indole-2-carboxylic acid] stands > 10000 nM; under `O=C(NCc1cccc(F)c1)C1(O)CCCN(Cc2ccc(F)c(F)c2)C1=O` (stereo not shown) [A253, N-(3-Fluorobenzyl)-1-(3,4-difluorobenzyl)-3-hydroxy-2-oxo-piperidine-3-carboxamide], 1000 to 10000 nM; under `CC(=O)Nc1ccc(N2CCC(O)(C(=O)NCCc3cccc(F)c3)C2=O)cn1` (stereo not shown) [A174, N-[2-(3-Fluorophenyl)ethyl]-1-(6-acetylaminopyridin-3-yl)-3-hydroxy-2-oxopyrrolidine-3-carboxamide], 10 to 1000 nM. With `CNC(=O)c1cccc(N2CCC(O)(C(=O)NCc3cc(F)cc(Cl)c3)C2=O)c1` (stereo not shown) [A133, N-(3-Chloro-5-fluorobenzyl)-3-hydroxy-1-(3-methylcarbamoyl-phenyl)-2-oxopyrrolidine-3-carboxamide], the IC50 lay within 10 to 1000 nM. In the case of `Cn1nccc1CN1CCC(O)(C(=O)NCc2cc(F)cc(Cl)c2)C1=O` (stereo not shown) [A276, N-(3-Chloro-5-fluorobenzyl)-3-hydroxy-1-(2-methyl-2H-pyrazol-3-ylmethyl)-2-oxopyrrolidine-3-carboxamide], the IC50 was in the range of 1000 to 10000 nM.

Take `Cc1nc2cc(N3CCC(O)(C(=O)NCc4cc(F)cc(Cl)c4)C3=O)cnc2[nH]1` (stereo not shown) [B33, N-(3-Chloro-5-fluorobenzyl)-3-hydroxy-1-(2-methyl-3H-imidazo[4,5-b]pyridin-6-yl)-2-oxopyrrolidine-3-carboxamide]: the half-maximal inhibitory concentration (IC50) lay within 10 to 1000 nM. Under `CN1CCN(C(=O)c2cc3cc(N4CC[C@](O)(C(=O)NCc5cc(F)cc(Cl)c5)C4=O)ccc3[nH]2)CC1` [B122, N-(3-Chloro-5-fluorobenzyl)-(S)-3-hydroxy-1-[2-(4-methyl-piperazin-1-carbonyl)-1H-indol-5-yl]-2-oxopyrrolidine-3-carboxamide] stands 10 to 1000 nM.

On to `O=C(NCc1cc(F)cc(Cl)c1)[C@@]1(O)CCN(c2ccc3cc[nH]c3c2)C1=O` [A153, N-(3-Chloro-5-fluorobenzyl)-(S)-3-hydroxy-1-(1H-indol-6-yl)-2-oxopyrrolidine-3-carboxamide], for which the IC50 lay within 10 to 1000 nM. As to `NC(=O)[C@@]1(O)CCN(c2ccc3c(c2)CCC(=O)N3)C1=O` [B103, (S)-3-Hydroxy-2-oxo-1-(2-oxo-1,2,3,4-tetrahydroquinolin-6-yl)-pyrrolidine-3-carboxamide], the IC50 was > 10000 nM. Under `O=C(NCc1cc(F)cc(Cl)c1)[C@@]1(O)CCN(c2cnc3[nH]c(C(F)(F)F)cc3c2)C1=O` [B83, N-(3-Chloro-5-fluorobenzyl)-(S)-3-hydroxy-2-oxo-1-(2-trifluoromethyl-1H-pyrrolo-[2,3-b]pyridin-5-yl)pyrrolidine-3-carboxamide] stands 10 to 1000 nM; under `NC(=O)CN1CCC(O)(C(=O)NCc2cc(F)cc(Cl)c2)C1=O` (stereo not shown) [A248, N-(3-Chloro-5-fluorobenzyl)-1-carbamoylmethyl-3-hydroxy-2-oxopyrrolidine-3-carboxamide], 1000 to 10000 nM; under `CCS(=O)(=O)Nc1cccc(N2CC[C@](O)(C(=O)NCc3cc(F)cc(Cl)c3)C2=O)c1` [A79, N-(3-Chloro-5-fluorobenzyl)-(S)-1-(3-ethanesulfonylaminophenyl)-3-hydroxy-2-oxopyrrolidine-3-carboxamide], 10 to 1000 nM.

Turning to `Cc1ccc(CN2CCC(O)(C(=O)NCc3cc(F)cc(Cl)c3)C2=O)n1C` (stereo not shown) [A280, N-(3-Chloro-5-fluorobenzyl)-1-(1,5-Dimethyl-1H-pyrrol-2-ylmethyl)-3-hydroxy-2-oxo-pyrrolidine-3-carboxamide], the IC50 is 1000 to 10000 nM.
